# Test results published in patent publication US20040097598A1 (priority 2001, published 2004).
# pIC50: −log10 of the molar value. Where two headings read alike, the source gives them in different places.
# Columns and labels:
# MES seizure = test: maximal electroshock (MES) seizure test; assay type: in vivo, mice; settings: for TI (therapeutic index): ratio TD50 (rotorod)/ED50 (MES); for TI (therapeutic index) / anticonvulsant activity: mice; for anticonvulsant activity / LogED50: MES test; for anticonvulsant activity: intraperitoneal; for LogED50: best-fit value, C5 vs C7 comparison
# Procedure: (§1) Male CF-1 mice, weighing 28-30 g, were used as subjects (Charles River Canada, La Prairie, Quebec, Canada). Three to five subjects per drug dose were used to prescreen each compound for anticonvulsant activity. Prescreening involved injecting subjects with the drug at doses of 3, 6 mmol/kg and assessing activity and toxicity 30 min later. Promising compounds progressed to dose-response studies, which employed at least 50 subjects, 10 subjects per dose.
# (§2) Compounds were dissolved in oil and injected intraperitoneally.
# Thirty minutes after drug injection, the MES seizure test was administered. We used the procedure of Krall et al. (1978). In brief, a seizure was induced using the electrical current applied via corneal electrodes. The current was set to 50 mA with a 60 Hz sine wave pulse configuration and train duration of 0.2 sec. Seizure protection was defined in this model as a failure to extend the hind limbs to an angle greater than 90 degrees during the tonic period of the convulsion.
# Data analysis was performed using GraphPad Prizm software package version 3.02 for Windows (GraphPad Software Inc, San Diego, Calif., USA). Both dose-response and toxicity data were fitted using non-linear sigmoidal dose-response model with variable slope: Y=Bottom+(Top-Bottom)/(1+10^((LogED50—X)*HillSlope)), where Bottom, Top, HillSlope and ED50 were the fitting parameters, X was the logarithm of drug concentration, and Y was the response parameter. ED50 and TD50, which are the concentrations that give a response in 50% subjects in seizure and toxicity tests, were determined as best-fit values. Therapeutic index (TI) was calculated as a ratio of TD50/ED50.
# [1] = tested on: neurological deficit (rotorod); test: rotorod toxicity test; assay type: in vivo; settings: dose giving rotorod failure in 50% subjects, about 25 min after intraperitoneal injection in oil, male CF-1 mice
# Procedure: as §1, §2
# The test was administered about 25 minutes after the injection. In brief, the diameter of a rotating rod was about 5 cm and the number of revolutions per minute was set at 6 rpm. Mice were placed on the rod so that it was rotated toward the animal. Animals that were not able to maintain their equilibrium on the rod for 1 min were again put on the rod a further two times.
# Both dose-response and toxicity data were fitted using non-linear sigmoidal dose-response model with variable slope: Y=Bottom+(Top-Bottom)/(1+10^((LogED50—X)*HillSlope)), where Bottom, Top, HillSlope and ED50 were the fitting parameters, X was the logarithm of drug concentration, and Y was the response parameter. […] Therapeutic index (TI) was calculated as a ratio of TD50/ED50.
# [2] = biological target: nicotinic acetylcholine receptors; settings: inhibition of acetylcholine ion channel, Alifimoff et al. (1993); cited from earlier work
# [3] = tested on: pentylenetetrazole seizures; test: pentylenetetrazole seizures after intraperitoneal acetoacetate; assay type: in vivo; settings: 15-30 min after intraperitoneal injection, mice or rats
# Description: (§3) Experiments of Keith and Helmholz involving the thujone model of epileptic seizures seemed to support Wilder's hypothesis (Helmholz & Keith 1930, Keith 1931, 1932a,b). […] The Keith's results and conclusions about anticonvulsant activity of acetoacetate are debatable. […] At the same time, acetoacetate easily decomposes to form acetone.
# [4] = tested on: maximal electroshock seizures; test: maximal electroshock seizures after intraperitoneal acetoacetate; assay type: in vivo; settings: 15-30 min after intraperitoneal injection, mice or rats
# Description: as §3
# [5] = tested on: thujone model of epileptic seizures; settings: cited from earlier work
# [6] = tested on: amygdala-kindled seizures; test: amygdala-kindling model, acetone (FIG. 3)
# Description: (§4) The amygdala-kindled focus is a model of complex partial seizures in humans (Albright & Burnham 1980). These are notoriously drug resistant.
# (§5) The AY-9944-induced seizures were quantified by measurement of the onset-to-offset durations of the slow spike-and-wave discharge (SWD) combined over the 20-min intervals. In the AY-9944 model, average ‘% SWD decrease’ was the response parameter.
# (§6) Compounds may be examined for their efficacy as anticonvulsants using a number of different animal models, including the maximal electroshock (MES) model (human analog: tonic-clonic seizures) as described in Krall et al. (1978) and in Example 1 herein, the threshold pentylenetetrazole (PTZ) model (human analog: absence seizures) as described in Krall et al. (1978), the amygdala-kindling model (human analog: complex partial seizures with secondary generalization) as described in Albright & Burnham (1980), and the AY-9944 model (human analog, a typical absence, a component of the Lennox-Gastaut syndrome) as described in Cortez et al. (2001). The compounds may also be tested for their toxicity using standard assays, such as the standard rotorod assay as described in Dunham & Miya (1957) and Wlaz & Loscher (1998) and in Example 1 herein.
# [7] = tested on: convulsions induced by isonicotinic acid; settings: pretreatment, rats; cited from earlier work
# [8] = tested on: electrically evoked seizure; settings: exposed for 4 h to air containing acetone vapors; cited from earlier work
# seizures = test: anticonvulsant action of the ketone bodies; settings: in vivo
# Description: The present inventors have studied the mechanism of action of the ketogenic diet in a series of animal experiments.
# [9] = tested on: semicarbizide-induced convulsions; settings: given orally to mice; cited from earlier work
# [10] = tested on: maximal electroshock (MES) model; test: maximal electroshock (MES) model, acetone (FIG. 3); assay type: in vivo
# Description: as §4, §5, §6
# AY-9944-induced seizures = test: AY-9944 model, acetone (FIG. 3); assay type: in vivo
# Description: as §4, §5, §6
# [11] = tested on: convulsions induced by electroshock; settings: pretreatment, rats; cited from earlier work
# [12] = tested on: threshold pentylenetetrazole (PTZ) model; test: threshold pentylenetetrazole (PTZ) model, acetone (FIG. 3); assay type: in vivo
# Description: as §4, §5, §6
# [13] = dose giving seizure protection in 50% subjects, MES test 30 min after intraperitoneal injection in oil, male CF-1 mice
# [14] = Mus musculus, ip, 0.5 h, dose giving seizure protection in 50% subjects, MES test 30 min after intraperitoneal injection in oil, male CF-1 mice, read-out: ED50
# [15] = mouse, in vivo, ip, read-out: TD50
# [16] = given chronically for 28 days, rats
Compound,TI (therapeutic index) (MES seizure),ED50 (MES seizure; [14]) [µmol/kg],"TD50 [1, 15] [µmol/kg]",also measured
2-Butanone,1.7,–,–,ED50 (MES seizure; [13]): 5800 µmol/kg; TD50 [1]: 10000 µmol/kg
"CC(O)CCCO (centres unmarked) [1,4-Pentanediol]",–,–,–,anticonvulsant activity (MES seizure): absence of anticonvulsant activity
CCCCCCCCC(C)O (centres unmarked) [2-Decanol],Not Active,–,–,ED50 (MES seizure; [13]): Not Active; TD50 [1]: Not Active
CCCCCCCCC(C)=O [2-Decanone],Not Active,–,–,ED50 (MES seizure; [13]): Not Active; TD50 [1]: Not Actuve
CCCCCC(C)O (centres unmarked) [2-Heptanol],3.9,1300,5100,LogED50 (MES seizure): LogED50 = 0.1197
CCCCCC(C)=O [2-Heptanone],2.2,2800,6000,LogED50 (MES seizure): LogED50 = 0.4447
CCCCC(C)=O [2-Hexanone],1.8,–,4400,"ED50 (MES seizure; Mus musculus, ip, 0.5 h): 2400 µmol/kg"
CCCCCCCC(C)O (centres unmarked) [2-Nonanol],4.3,1200,5000,–
CCCCCCCC(C)=O [2-Nonanone],9.4,1700,15900,–
CCCCCCC(C)O (centres unmarked) [2-Octanol],1.9,2000,3900,–
CCCCCCC(C)=O [2-Octanone],1.8,3400,6000,–
CCCC(C)O (centres unmarked) [2-Pentanol],3.7,1600,5700,LogED50 (MES seizure): LogED50 = 0.2331
CCCC(C)=O [2-Pentanone],2.2,–,7200,"LogED50 (MES seizure): LogED50 = 0.5176; ED50 (MES seizure; Mus musculus, ip, 0.5 h): 3300 µmol/kg"
CCCCCCCCCC(C)=O [2-Undecanone],Not Active,–,–,ED50 (MES seizure; [13]): Not Active; TD50 [1]: Not Active
CCC(C)O (centres unmarked) [2-butanol],–,–,–,pIC50 [2]: 1.15 to 1.22
CCCCCCC(=O)CC [3-Nonanone],2.2,9600,20900,–
CCC(=O)CC [3-Pentanone],2.3,3300,7600,LogED50 (MES seizure): LogED50 = 0.5124

Compound,TI (therapeutic index) (MES seizure),ED50 (MES seizure; [14]) [µmol/kg],"TD50 [1, 15] [µmol/kg]",also measured
CCCC(=O)CCC [4-Heptanone],2.4,2000,4700,LogED50 (MES seizure): LogED50 = 0.2981
CCCCCC(=O)CCC [4-Nonanone],3.3,5000,16300,–
CCCCC(=O)CCCC [5-Nonanone],3.6,3600,13200,–
CCCCCC(=O)CCCCC [6-Undecanone],Not Active,–,–,ED50 (MES seizure; [13]): Not Active; TD50 [1]: Not Active
CC(=O)CC(=O)O [Acetoacetate],–,–,–,effect against pentylenetetrazole seizures [3]: not effective; effect against maximal electroshock seizures [4]: not effective
"CC(O)CC(=O)O (stereo not drawn) [Beta-hydroxybutyrate, beta-hydroxybutyrate]",–,–,–,anticonvulsant effect [5]: not anticonvulsant
CCCCOC(C)=O [Butyl acetate],–,–,–,anticonvulsant activity (MES seizure): Series V - Inactive analogues
CC(=O)CC(C)(C)O [Diacetone],–,–,–,anticonvulsant activity (MES seizure; listed as diacetone alcohol): absence of anticonvulsant activity
CCOC(=O)CC(C)=O [Ethyl acetoacetate],–,–,–,anticonvulsant activity (MES seizure): absence of anticonvulsant activity
CCCCCC=O [Hexanal],–,–,–,anticonvulsant activity (MES seizure): inactive as anticonvulsants
COCC(C)=O [Methoxyacetone],–,–,–,anticonvulsant activity (MES seizure): absence of anticonvulsant activity
CCCCCCCCC=O [Nonanal],–,–,–,anticonvulsant activity (MES seizure): inactive as anticonvulsants
CCCCCCCCC [Nonane],–,–,–,anticonvulsant activity (MES seizure): inactive as anticonvulsant
CC(=O)CC(=O)O [acetoacetic acid],–,–,–,anticonvulsant effect [5]: most marked anticonvulsant effects
CC(=O)CC(=O)[O-].[Na+] [sodium acetoacetate],–,–,–,anticonvulsant effect [5]: most marked anticonvulsant effects
CCCC(CCC)C(=O)O [valproate],2.7,1400,3800,–
Acetone,–,–,–,"seizure suppression ([6]; amygdala-kindling model): suppresses seizures; development of kindled seizures [6, 16]: significantly delayed; tolerability [6, 16]: well tolerated; effect against the kindled amygdala focus ([6]; sub-toxic doses): effective; protection against clonic-tonic convulsions [7]: protected; rats in which electrically evoked seizure is inhibited [8]: 50%; ED50 (MES seizure; [13]): 16200 µmol/kg; ED50 (MES seizure; dose giving seizure protection in 50% subjects, MES test 30 min after intraperitoneal injection in oil, male CF-1 mice, listed as acetone): 16000 µmol/kg; anticonvulsant (seizures): anticonvulsant; semicarbizide-induced convulsions and mortality [9]: reduce; seizure suppression [10]: suppresses seizures; TD50 [1]: 35200 µmol/kg; seizure suppression (AY-9944-induced seizures): suppresses seizures; protection against clonic-tonic convulsions [11]: protected; seizure suppression [12]: suppresses seizures"
